According to patent US20130123481A1, “MODIFIED NUCLEOSIDES, NUCLEOTIDES, AND NUCLEIC ACIDS, AND USES THEREOF” (MODERNA THERAPEUTICS, priority 2011, published 2013):

Legend:
[1] = test system: Balb-C mice; assay: In Vivo Screening of Luciferase Modified mRNA (bioluminescence, total flux); details: fully modified luciferase mRNA in 1×PBS, subcutaneous, 42 to 103 ug, imaged 8 hours after dosing, total flux of entire mouse
Method: A control of PBS was also tested. The dosages of the modified luciferase mRNA is also outlined in Table 31. 8 hours after dosing the mice were imaged to determine luciferase expression. Twenty minutes prior to imaging, mice were injected intraperitoneally with a D-luciferin solution at 150 mg/kg. Animals were then anesthetized and images were acquired with an IVIS Lumina II imaging system (Perkin Elmer). Bioluminescence was measured as total flux (photons/second) of the entire mouse.

[2] = test system: Salmonella tester strains (TA97a, TA98, TA100 and TA1535) and Escherichia coli strain (WP2 uvrA pKM101); assay: Microames Reverse Mutation Screen
Method: The microames screen is a version of the full Ames preincubation assay. It detects both frameshift and base-pair substitution mutations using four Salmonella tester strains (TA97a, TA98, TA100 and TA1535) and one Escherichia coli strain (WP2 uvrA pKM101). Strains TA97a and TA98 detect frameshift mutations, and TA100, TA1535 and WP2 uvrA pKM101 detect base-pair substitution mutations. This scaled-down Ames test uses minimal compound, is conducted with and without metabolic activation (S9 fraction), and uses multiwell plates. This teste is a microbial assay to detect the mutagenic potential of test compounds.
Positive control compounds were used at 4 different concentrations to ensure the assay system was sensitive to known mutagenic compounds. DMSO was used as the vehicle control.

[3] = test system: peripheral blood mononuclear cells (PBMC); assay: In Vitro Screening in PBMC - G-CSF protein expression; assay type: cell-based, human; details: 500 ng mRNA
Description: (§1) The supernatant was harvested and stored frozen until analyzed by ELISA to determine the G-CSF protein expression, and the induction of the cytokines interferon-alpha (IFN-α) and tumor necrosis factor alpha (TNF-α).

[4] = test system: peripheral blood mononuclear cells (PBMC), interferon-alpha (IFN-α); assay type: cell-based, human; details: 500 ng fully modified G-CSF mRNA
Description: as §1

[5] = test system: peripheral blood mononuclear cells (PBMC), tumor necrosis factor alpha (TNF-α); assay: In Vitro Screening in PBMC - tumor necrosis factor alpha (TNF-α) induction; assay type: cell-based, human; details: 500 ng fully modified G-CSF mRNA
Description: as §1

[6] = target: wild-type T7 polymerase (Escherichia phage T7, UniProt P00573); assay: In Vitro Transcription with Wild-Type T7 Polymerase (transcription and capping yield); details: OD260; for In vitro transcription Yield: wild-type T7 polymerase; for Capping reaction Yield: enzymatic capping
Method: The luciferase and G-CSF modified mRNA were also subjected to an enzymatic capping reaction and each modified mRNA capping reaction was evaluated for yield by spectrophometic measurement (OD260) and correct size assessed using bioanalyzer.

[7] = test system: HeLa cells; assay: G-CSF expression in HeLa cells (ELISA); assay type: cell-based, human; details: fully modified G-CSF mRNA transfected in HeLa cells, ELISA
Method: (§2) To assess the activity of all our different chemical modifications in the context of a second open reading frame, we replicated experiments previously conducted using luciferase mRNA, with human G-CSF mRNA. […] The mutant T7 polymerase was obtained commercially (Durascribe® T7 Transcription kit (Cat. No. DS010925) (Epicentre®, Madison, Wis.).
(§3) The modified RNA in Tables 45 and 46 were transfected in vitro in HeLa cells or added to rabbit reticulysates (250 ng of modified mRNA) as indicated. […] In Table 45, “NT” means not tested.

[8] = test system: rabbit reticulysates; assay: G-CSF expression in rabbit reticulysates (ELISA); assay type: biochemical; details: 250 ng modified G-CSF mRNA in rabbit reticulysates
Method: as §2, §3

[9] = test system: peripheral blood mononuclear cells (PBMC); assay: In Vitro PBMC Studies: Percent modification - G-CSF expression; assay type: cell-based, human; details: average of PBMC donors D1-D3
Method: 480 ng of G-CSF mRNA modified with 5-methylcytosine (5mC) and pseudouridine (pseudoU) or unmodified G-CSF mRNA was transfected with 0.4 uL of Lipofectamine 2000 into peripheral blood mononuclear cells (PBMC) from three normal blood donors (D1, D2, and D3). […] The supernatant was harvested and run by ELISA 22 hours after transfection to determine the protein expression. The expression of IFN-alpha and TNF-alpha may be a secondary effect from the transfection of the G-CSF mRNA.

[10] = test system: peripheral blood mononuclear cells (PBMC), IFN-alpha; assay: In Vitro PBMC Studies: Percent modification - IFN-alpha expression; assay type: cell-based, human
Method: (§4) The supernatant was harvested and run by ELISA 22 hours after transfection to determine the protein expression.

[11] = test system: peripheral blood mononuclear cells (PBMC), TNF-alpha; assay: In Vitro PBMC Studies: Percent modification - TNF-alpha expression; assay type: cell-based, human
Method: as §4

[12] = any strain, with or without metabolic activation
[13] = PBMC Donor 1, 0.4 uL Lipofectamine 2000
[14] = Lipofectamine 2000, PBMC Donor 1, supernatant ELISA
[15] = Lipofectamine 2000, PBMC Donor 2, supernatant ELISA
[16] = Lipofectamine 2000, PBMC Donor 3, supernatant ELISA

Sequence of wild-type T7 polymerase (P00573 whole entry): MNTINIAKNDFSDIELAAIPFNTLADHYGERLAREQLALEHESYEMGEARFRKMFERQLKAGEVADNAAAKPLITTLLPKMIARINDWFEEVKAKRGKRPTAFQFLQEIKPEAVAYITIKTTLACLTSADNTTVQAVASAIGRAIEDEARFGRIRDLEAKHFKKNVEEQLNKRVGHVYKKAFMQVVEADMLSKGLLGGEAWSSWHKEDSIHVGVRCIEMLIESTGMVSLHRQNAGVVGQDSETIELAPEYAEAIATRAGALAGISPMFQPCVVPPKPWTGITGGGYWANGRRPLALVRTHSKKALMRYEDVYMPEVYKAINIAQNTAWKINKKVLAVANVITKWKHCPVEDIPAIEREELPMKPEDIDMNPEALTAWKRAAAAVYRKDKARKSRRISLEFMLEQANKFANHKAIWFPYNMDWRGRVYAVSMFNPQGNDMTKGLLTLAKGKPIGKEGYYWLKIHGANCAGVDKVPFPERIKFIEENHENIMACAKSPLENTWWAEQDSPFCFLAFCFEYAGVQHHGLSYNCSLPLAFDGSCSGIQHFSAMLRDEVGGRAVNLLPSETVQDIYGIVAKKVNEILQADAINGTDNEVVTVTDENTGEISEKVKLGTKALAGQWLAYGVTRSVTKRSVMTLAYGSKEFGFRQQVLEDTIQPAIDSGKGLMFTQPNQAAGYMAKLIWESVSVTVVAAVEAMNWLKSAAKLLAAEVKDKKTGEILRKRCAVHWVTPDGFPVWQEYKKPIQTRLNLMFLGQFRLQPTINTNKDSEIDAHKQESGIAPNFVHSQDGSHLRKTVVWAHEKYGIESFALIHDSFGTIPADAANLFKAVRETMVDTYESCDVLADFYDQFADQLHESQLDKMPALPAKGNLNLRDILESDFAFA

Compound	Luciferase expression (photon/second) [1] [photon/second]	G-CSF Protein Expression [3, 13] [pg/mL]	G-CSF Protein Expression ([3]; PBMC Donor 2)	G-CSF Protein Expression ([3]; PBMC Donor 3)	G-CSF protein (pg/ml) HeLa cells [7]	G-CSF protein (pg/ml) Rabbit reticulysates cells [8]	further results
Cn1cc([C@@H]2O[C@H](CO)[C@@H](O)[C@H]2O)c(=O)[nH]c1=O [Compound 1-methylpseudouridine, 1-methylpseudouridine]	7.40E+07	–	–	–	–	–	–
Cc1cn([C@@H]2O[C@H](CO)[C@@H](O)[C@H]2O)c(=O)nc1N [5-Methylcytidine, reference compound]	1.94E+07	291	277 pg/mL	359 pg/mL	–	–	Cytotoxicity (reduction in the background lawn and/or number of revertants) [2, 12]: not observed; increase in the number of revertant colonies as compared with the vehicle control [2, 12]: no increase; mutagenic (microAmes screen) ([2]; up to 250 ug/well, strains TA97a, TA98, TA100, TA1535 and WP2 uvrA pKM101 with or without metabolic activation): not mutagenic; IFN-α Expression (pg/ml) Donor 1 [4, 14]: 643 pg/mL; IFN-α Expression (pg/ml) Donor 2 [4, 15]: 359 pg/mL; IFN-α Expression (pg/ml) Donor 3 [4, 16]: 529 pg/mL; TNF-α Expression (pg/ml) Donor 1 [5, 14]: 176 pg/mL; TNF-α Expression (pg/ml) Donor 2 [5, 15]: 136 pg/mL; TNF-α Expression (pg/ml) Donor 3 [5, 16]: 193 pg/mL; In vitro transcription Yield ([6]; G-CSF mRNA): 2.05 mg; Capping reaction Yield ([6]; G-CSF modified mRNA (wild-type T7)): 1.08 mg; In vitro transcription Yield ([6]; Luciferase mRNA): 1.29 mg; Capping reaction Yield ([6]; Luciferase modified mRNA (wild-type T7)): 1.02 mg
O=c1[nH]cc([C@@H]2O[C@H](CO)[C@@H](O)[C@H]2O)c(=O)[nH]1 [pseudouridine, Pseudouridine]	1.36E+07	2477	1,909 pg/ml	1,498 pg/ml	1,150,909 pg/ml	147,875 pg/ml	–
Cc1cn([C@@H]2O[C@H](CO)[C@@H](O)[C@H]2O)c(=O)[nH]c1=O [5-methyluridine]	7.42E+06	318	359 pg/mL	345 pg/mL	347,045 pg/ml	147,250 pg/ml	–
C[C@]1(CO)O[C@@H](n2ccc(N)nc2=O)[C@H](O)[C@@H]1O [Compound 25, 4′-C-methyl cytidine]	–	–	–	–	–	–	Average G-CSF [9]: 122 pg/mL; Average IFN-a [10]: 545 pg/mL; Average TNF-a [11]: 44 pg/mL
